Test [1] relates to calpain 3. In words: Cleavage of autolytic-site peptides by extracts of normal (+/+) or calpain 3-deficient (−/−) mouse quadriceps. Format: biochemical. The following applies: quadriceps lysates, over 6 hours; FIG. 7. How it is done: (§1) Final volume of 200 μl; calcium (CaCl2) 10 mM final concentration; fluorescent peptides 1.9 μM final concentration.
(§2) The reaction is carried out at 37° C., either over one hour (with in this case measurement of fluorescence every 50 seconds) or over 6 hours (measurement every 2 minutes).
(§3) Excitation wavelengths of Mca: 325 nm.
(§4) Emission wavelengths of […]: 392 nm.
(§5) Reaction buffer: 100 mM NaCl, 50 mM HEPES, 10 mM DTT, 1 mM EDTA, 10% glycerol, 0.1% CHAPS, 100 ng/μl BSA, pH=7.4, filtration. Storage at ambient temperature.
Principle: The muscles are ground for the purpose of preparing protein extracts the properties of which may then be studied.
Material: Quadriceps of normal mice and of calpain 3-deficient mice.
The muscles are ground in liquid nitrogen. The ground material is resuspended in the lysis buffer (cf. composition in the cell lysis protocol above) in a proportion of 19 μl of lysis buffer per milligram of ground tissue.
The buffer is allowed to act for 10 minutes in ice. Centrifugation is carried out at 10 000 g for 10 minutes at 4° C.
(§6) The supernatant is recovered and stored at −20° C.
Activity assays were also carried out on lysates of muscles from mice deficient or not deficient in calpain 3. The assays were carried out using quadriceps lysates (FIG. 7).

Test [2] relates to calpain 3. Nature of the test: Cleavage of autolytic-site peptides by extracts of normal (+/+) or calpain 3-deficient (−/−) mouse myoblasts. Format: biochemical. Conditions: myoblast extracts; for cleavage activity on the peptide / difference in cleavage activity between +/+ and −/− cells: reaction over 1 h, FIG. 4; for cleavage activity, +/+ versus −/− cell extracts: reaction over 6 h, FIG. 6. How it is done: as §1, §2, §3, §4, §5
(§7) Principle: The animal cells, which may or may not be transfected, are lysed for the purpose of preparing protein extracts the properties of which may be studied.
(§8) The culture medium is removed from the wells and the wells are washed with PBS (phosphate buffered Dulbecco solution (without calcium, or magnesium, or sodium bicarbonate)—Gibco BRL).
(§9) The cells are harvested and centrifuged at 500 g for 10 min at 4° C.
(§10) The supernatant is removed and the cells are taken up in the lysis buffer (50 mM HEPES, 1 mM DTT, 0.1 mM EDTA, 0.1% CHAPS, pH=7.4) in a proportion of 700 μl of lysis buffer per well.
(§11) The buffer is allowed to act at 4° C. for 5 minutes. Centrifugation is carried out at 10 000 g/10 minutes/4° C.
as §6
The system is then assayed on extracts of cell cultures deficient or not deficient in calpain 3. To do this, mice deficient for the calpain 3 gene, for which myogenic cell cultures have been derived [Richard, 2000], are used. Extracts of cultures of calpain 3-deficient muscle cells (−/−cells) can therefore be compared with extracts of cultures of normal muscle cells (+/+cells). Initially, the assay was carried out on undifferentiated cells (myoblasts) (FIG. 4).

A further test has as its target T1, Calpain 2 (Rattus norvegicus, UniProt Q07009).
T1 construct: purchased Calbiochem; host or cells: E. coli
T1 sequence (Q07009 1-700): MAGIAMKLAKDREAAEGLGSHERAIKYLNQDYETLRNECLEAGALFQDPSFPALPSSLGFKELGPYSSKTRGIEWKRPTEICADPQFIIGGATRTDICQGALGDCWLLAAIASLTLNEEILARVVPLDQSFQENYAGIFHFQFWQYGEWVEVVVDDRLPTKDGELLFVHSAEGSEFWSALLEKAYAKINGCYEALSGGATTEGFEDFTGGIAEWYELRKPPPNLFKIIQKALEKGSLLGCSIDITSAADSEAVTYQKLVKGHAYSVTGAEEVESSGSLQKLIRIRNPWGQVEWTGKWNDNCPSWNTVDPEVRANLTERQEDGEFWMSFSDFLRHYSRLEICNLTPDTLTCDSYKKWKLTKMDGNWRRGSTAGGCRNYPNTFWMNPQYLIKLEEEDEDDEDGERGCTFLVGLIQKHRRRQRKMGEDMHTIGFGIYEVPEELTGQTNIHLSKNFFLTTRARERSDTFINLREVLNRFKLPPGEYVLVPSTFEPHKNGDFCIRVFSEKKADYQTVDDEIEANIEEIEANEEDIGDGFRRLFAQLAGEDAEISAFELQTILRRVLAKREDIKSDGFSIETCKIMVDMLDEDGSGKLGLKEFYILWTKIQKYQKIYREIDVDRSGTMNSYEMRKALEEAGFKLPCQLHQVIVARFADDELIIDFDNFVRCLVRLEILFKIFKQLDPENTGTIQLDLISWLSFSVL
T1 sequence (Q64537 87-270 partner limits assumed): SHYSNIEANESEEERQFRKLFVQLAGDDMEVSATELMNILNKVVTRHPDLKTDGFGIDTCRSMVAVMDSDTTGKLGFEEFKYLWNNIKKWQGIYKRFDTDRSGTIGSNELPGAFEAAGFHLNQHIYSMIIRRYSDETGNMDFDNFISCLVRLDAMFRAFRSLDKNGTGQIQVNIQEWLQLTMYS
Nature of the test: Assay of specificity of autolytic-site peptide cleavage (FRET fluorescence) by commercial calpain 2. Format: biochemical. The following applies: calpain 2, rat recombinant; 10 mM CaCl2; peptide 1.9 μM; 37° C.; FIG. 2. How it is done: (§12) 1/ Fluorometer: SpectraMax Gemini XS Microplate fluoro-meter (molecular Devices).
Calpain 2: rat, recombinant, E. coli (Calbiochem)
as §1, §2
(§13) The medium is agitated between each measurement. The wavelengths used for detecting the fluorescence of the peptides are:
as §3, §4
(§14) Resuspension buffer for commercial calpains: 100 mM NaCl, 5 mM EDTA, 50 Mm TrisHCl, 5 mM β-mercaptoethanol, 40% glycerol, pH=7.8. Storage at ambient temperature. Resuspension buffer for the fluorescent peptides: the peptides are resuspended at 1 mg/ml in 100% DMSO.
as §5
(§15) Before verifying whether calpain 3 can cleave the peptides corresponding to its autolytic sites, a first assay consisted in verifying that these peptides (site 1, site 2, site 3) could not be cleaved by other proteases, in particular by ubiquitous calpains (see FIG. 2).

The next test deals with T2, Calpain 1 (Homo sapiens, UniProt P07384).
T2 construct: Calpain 1: human erythrocytes (Calbiochem); purchased Calbiochem; host or cells: human erythrocytes
T2 sequence (P07384 1-714): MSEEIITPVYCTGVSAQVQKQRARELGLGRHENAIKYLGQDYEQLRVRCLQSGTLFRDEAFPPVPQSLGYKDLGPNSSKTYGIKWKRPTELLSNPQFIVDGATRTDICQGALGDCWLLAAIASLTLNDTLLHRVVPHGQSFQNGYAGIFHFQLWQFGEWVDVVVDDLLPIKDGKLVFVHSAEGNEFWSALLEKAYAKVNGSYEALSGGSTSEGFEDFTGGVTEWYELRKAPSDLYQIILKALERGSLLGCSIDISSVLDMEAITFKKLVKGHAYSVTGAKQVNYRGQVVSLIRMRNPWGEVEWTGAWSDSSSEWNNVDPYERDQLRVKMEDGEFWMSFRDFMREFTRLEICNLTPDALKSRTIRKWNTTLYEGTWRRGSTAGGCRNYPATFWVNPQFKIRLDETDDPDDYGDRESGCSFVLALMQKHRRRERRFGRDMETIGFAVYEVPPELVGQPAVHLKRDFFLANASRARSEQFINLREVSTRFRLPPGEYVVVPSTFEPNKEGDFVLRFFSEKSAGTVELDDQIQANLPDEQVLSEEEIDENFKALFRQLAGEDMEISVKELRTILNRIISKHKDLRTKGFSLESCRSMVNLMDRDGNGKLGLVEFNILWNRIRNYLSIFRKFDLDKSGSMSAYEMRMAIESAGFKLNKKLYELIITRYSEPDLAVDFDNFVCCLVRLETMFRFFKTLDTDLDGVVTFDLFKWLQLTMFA
T2 sequence (P04632 1-268 partner): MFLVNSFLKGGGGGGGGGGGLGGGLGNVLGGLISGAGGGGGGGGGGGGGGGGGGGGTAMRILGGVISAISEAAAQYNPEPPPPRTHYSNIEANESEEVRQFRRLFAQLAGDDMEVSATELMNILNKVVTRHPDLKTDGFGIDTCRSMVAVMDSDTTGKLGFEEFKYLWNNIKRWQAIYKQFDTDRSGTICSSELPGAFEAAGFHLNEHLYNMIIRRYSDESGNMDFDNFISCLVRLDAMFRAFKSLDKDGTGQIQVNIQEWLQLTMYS
In words: Assay of specificity of autolytic-site peptide cleavage (FRET fluorescence) by commercial calpain 1. The following applies: calpain 1, human erythrocytes; 10 mM CaCl2; peptide 1.9 μM; 37° C.; FIG. 2. In kind it is biochemical. How it is done: as §12
Calpain 1: human erythrocytes (Calbiochem)
as §1, §2, §13, §3, §4, §14, §5, §15

The subject of test [3] is calpain 3. Nature of the test: Cleavage of autolytic-site peptides by extracts of C2C12 cells transfected or not transfected with the plasmid encoding calpain 3. In kind it is biochemical, murine. Conditions: FIG. 3; for difference in cleavage activity between calpain 3-transfected and untransfected cells: C2C12 extracts, efficiency of transfection less than 10%; for activity of C2C12 extracts on the peptide (fluorescence): transfected or untransfected C2C12 extracts. How it is done:
as §1, §2, §3, §4, §5
Cell Lines Used: C2C12: murine myoblasts;
Medium used for C2C12: DMEM+10% FCS
The desired cells are trypsinized and then the wells are seeded in such a way that the cells are at 50-80% confluency the following day.
Allow the cells to grow at 37° C./7% CO2.
as §7, §8, §9, §10, §11, §6
It is known that calpain 3 has greater stability in muscle cells due to the presence of titin. For the purpose of proving that calpain 3 could cleave its own autolytic sites, it was therefore overexpressed in C2C12 cells by transfecting these cells with a plasmid encoding calpain 3. A control transfection with pECFP was carried out at the same time as the transfection with the plasmid encoding calpain 3. The efficiency of transfection on the C2C12s is less than 10%. The proteins were then extracted and their activity was assayed on the autolytic sites (FIG. 3).

Test [4] concerns calpain 3. In words: Cleavage of autolytic site 3 peptide by extracts of normal (+/+) or calpain 3-deficient (−/−) mouse myotubes. In kind it is biochemical. Conditions: myotube extracts; FIG. 5. How it is done:
as §1, §2, §3, §4, §5, §7, §8, §9, §10, §11, §6
Specifically, calpain 3 is theoretically expressed more in myotubes than in myoblasts.

The values below come from patent US20040180395A1, “Method for detecting calpain3 activity in a biological sample and peptides for implementing said method” (priority 2001, published 2004).

Primed or numbered codes have the meaning given here. The star is where a group is joined. Mca = COc1ccc2c(CC(=O)*)cc(=O)oc2c1; Dnp′ = not defined here

For Mca-NMDNISLL-Dnp [site 2], in the test with calpain 3 [1], the “activity of cleavage, +/+ versus −/− tissue extracts” value is listed as “by the +/+ tissue extracts is greater than that of the −/−tissue extracts”. In the test with calpain 3 [2], the “cleavage activity on the peptide” value is “No cleavage activity could be detected” and the “cleavage activity, +/+ versus −/− cell extracts” value was “greater in extracts of +/+cells”. Further, the “cleavage activity on the peptide (fluorescence over time vs peptide without enzyme)” value with Calpain 2 is on record as “no cleavage activity”. For the same substance, the “cleavage activity on the peptide (fluorescence over time vs peptide without enzyme)” value with Calpain 1 is reported as “no cleavage activity”. In the test with calpain 3 [3], the “difference in cleavage activity between calpain 3-transfected and untransfected cells” value is given as “no difference can be detected”; the “activity of C2C12 extracts on the peptide (fluorescence)” value was “slight increase in fluorescence”.
In the case of “Mca-NMTYGTS-Dnp (Mca-NMTYGTS-{Dnp′}) [site 1, fluorescent FRET peptide of calpain 3 autolytic site 1, Mca donor and Dnp acceptor]”, the “activity of cleavage, +/+ versus −/− tissue extracts” value with calpain 3 [1] was “by the +/+ tissue extracts is greater than that of the −/−tissue extracts”. Further, in the test with calpain 3 [2], the “cleavage activity on the peptide” value is “low cleavage activity”; the “difference in cleavage activity between +/+ and −/− cells” value was “very small”; the “cleavage activity, +/+ versus −/− cell extracts” value is “greater in extracts of +/+cells”. The “cleavage activity on the peptide (fluorescence over time vs peptide without enzyme)” value with Calpain 2 is “no cleavage activity”. For the same substance, the “cleavage activity on the peptide (fluorescence over time vs peptide without enzyme)” value with Calpain 1 was “no cleavage activity”. In the test on calpain 3 [3], the “difference in cleavage activity between calpain 3-transfected and untransfected cells” value is “no difference can be detected”; the “activity of C2C12 extracts on the peptide (fluorescence)” value is recorded as “slight increase in fluorescence”.
For the substance “Mca-PVQYETR-Dnp (Mca-PVQYETR-{Dnp′}) [site 3, fluorescent FRET peptide of calpain 3 autolytic site 3, Mca donor and Dnp acceptor]”, in the test with calpain 3 [1], the “activity of cleavage, +/+ versus −/− tissue extracts” value is reported as “by the −/−tissue extracts is greater than that of the +/+tissue extracts”. In addition, in the test with calpain 3 [2], the “cleavage activity on the peptide” value is reported as “Cleavage activity is detected”; the “difference in cleavage activity between +/+ and −/− cells” value is on record as “no difference in activity is visible”; the “cleavage activity, +/+ versus −/− cell extracts” value is on record as “greater in extracts of −/−cells than in extracts of +/+cells”. Further, in the test with Calpain 2, the “cleavage activity on the peptide (fluorescence over time vs peptide without enzyme)” value is on record as “no cleavage activity”. For the same substance, the “cleavage activity on the peptide (fluorescence over time vs peptide without enzyme)” value with Calpain 1 is “no cleavage activity”. In addition, in the test with calpain 3 [3], the “difference in cleavage activity between calpain 3-transfected and untransfected cells” value was “greater in the transfected cells”. Besides, the “cleavage activity, −/− versus +/+ cell extracts” value in the test with calpain 3 [4] is reported as “in the extracts of −/−cells is greater than in the extracts of +/+cells”.
